Data taken from US20230107216A1, “PANTETHEINE DERIVATIVES AND USES THEREOF” (Comet Therapeutics, Inc., priority 2018, published 2023).
Like-named read-outs stand apart in the source and are kept apart here.

Columns and labels:
[1] = tested on: Propionic Acidemia (PA) primary fibroblasts Tsi 6337; test: Mitochondrial respiration, XFe96 Extracellular Flux Analyzer (OCR/ECAR), PA fibroblasts Tsi 6337; type: cell-based; details: Homo sapiens, Fibroblast, read-out: Increase in Maximal Respiratory Capacity AUC
Outline: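 Primary fibroblasts (20000 cells/well) were held 24 h in supplemented DMEM before Seahorse OCR/ECAR profiling. Compounds at 10 to 50 μM or 0.1% DMSO were injected after baseline, then oligomycin 1 μg/ml, FCCP, and rotenone/antimycin A 0.5 μM. Values were normalized to Hoechst nuclear counts, baselined to pre-compound, and expressed relative to vehicle.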

HepG2 cells = test: MitoBiogenesis In-Cell ELISA (COX-I, SDH-A); type: cell-based; details: Homo sapiens, 168 h, 7 days, read-out: % increase in Mitochondrial Biogenesis
Outline: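 HepG2 cells were plated, adhered overnight at 37 °C/5% CO2, then exposed to test compounds (50–10 μM) in DMEM with 10% FBS for 7 days without media change; vehicle was 0.2% DMSO. COX-I and SDH-A were measured by in-cell ELISA and reported as signal relative to vehicle, n=2.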

[2] = PA Tsi 6337, assay condition D (1 mM glucose, 10% FBS)

Structure (SMILES) | activation at 10 µM [1, 2] | activation at 50 µM (HepG2 cells) | activation at 10 µM ([1]; PA Tsi 6337, assay condition A (10 mM glucose, 2 mM L-glutamine, 1 mM pyruvate, 10% FBS)) | activation at 10 µM (HepG2 cells; 10 uM)
CCC(C)C(=O)CC(=O)SCCNC(=O)CCNC(=O)[C@H](O)C(C)(C)CO (stereo partly drawn) [Compound 1240, S-(2-(3-((R)-2,4-dihydroxy-3,3-dimethylbutanamido)propanamido)ethyl) 4-methyl-3-oxohexanethioate] | ≥ 10% | > 20% | – | –
COC(=O)C(C)C(=O)SCCNC(=O)CCNC(=O)[C@H](O)C(C)(C)CO (stereo partly drawn) [Compound 405] | ≥ 10% | > 5% | – | –
CC(O)C(C(=O)SCCNC(=O)CCNC(=O)[C@H](O)C(C)(C)CO)C(C)O (stereo partly drawn) [Compound 1285, (2R)-2,4-dihydroxy-N-[2-[(2-[[3-hydroxy-2-(1-hydroxyethyl)butanoyl]sulfanyl]ethyl)carbamoyl]ethyl]-3,3-dimethylbutanamide] | – | > 10% | – | –
COC(=O)CCC(=O)SCCNC(=O)CCNC(=O)[C@H](O)C(C)(C)CO [Compound 4, Methyl (R)-4-((2-(3-(2,4-dihydroxy-3,3-dimethylbutanamido)propanamido)ethyl)thio)-4-oxobutanoate] | – | > 5% | – | –
CC(C)(CO)[C@@H](OC(=O)CCC(=O)O)C(=O)NCCC(=O)NCCS [Compound 1311, (R)-4-((4-hydroxy-1-((3-((2-mercaptoethyl)amino)-3-oxopropyl)amino)-3,3-dimethyl-1-oxobutan-2-yl)oxy)-4-oxobutanoic acid] | – | – | ≥ 10% | 5%
C/C=C/C(=O)SCCNC(=O)CCNC(=O)[C@H](O)C(C)(C)COP(=O)(O)O [Compound 82, (R)—S-(2-(3-(2-hydroxy-3,3-dimethyl-4-(phosphonooxy)butanamido)propanamido)ethyl) (E)-but-2-enethioate] | – | > 10% | – | –
